≈ marks a conversion by molar mass, not a printed value.
Test system: up to 32 different microorganisms
Test: in vitro antibacterial activity (MIC), agar dilution on Brain Heart Infusion (BHI) agar with Steers replicator
Assay type: cell-based
Conditions: unit assumed
In short: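 Agar dilution MIC: twelve successive compound dilutions in BHI agar, spot-inoculated with 1:100 (1:10 for slow growers) organism dilutions by Steers replicator, incubated 35-37° C for 20-24 h. MIC is lowest concentration showing no growth, slight haze or sparse colonies versus drug-free control; erythromycin A as class reference.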

SMILES	MIC (organism code AA)	MIC (organism code CC)	MIC (organism code DD)	MIC (organism code FF)	MIC (organism code GG)	MIC (organism code HH)	MIC (organism code II)	MIC (organism code JJ)	MIC (organism code KK)	MIC (organism code LL)	MIC (organism code MM)	MIC (organism code NN)	MIC (organism code OO)	MIC (organism code PP)	MIC (organism code QQ)	MIC (organism code RR)	MIC (organism code SS)	MIC (organism code TT)	MIC (organism code UU)	MIC (organism code VV)	further results
CC[C@H]1OC(=O)[C@H](C)C(=O)[C@H](C)[C@@H](O[C@@H]2O[C@H](C)C[C@H](N(C)C)[C@H]2O)[C@@](C)(OCC=NNC(=O)c2ccccc2)C[C@@H](C)C(=O)[C@H](C)[C@H]2NC(=O)O[C@@]21C [Example 241, Compound of Formula (IX): L is CO, T is NH, R is —CH2CH═NNHC(O)phenyl]	3.1 µg/mL	> 100 µg/mL	6.2 µg/mL	6.2 µg/mL	> 100 µg/mL	6.2 µg/mL	1.56 µg/mL	0.39 µg/mL	1.56 µg/mL	0.78 µg/mL	> 100 µg/mL	6.2 µg/mL	0.78 µg/mL	3.1 µg/mL	> 100 µg/mL	1.56 µg/mL	> 100 µg/mL	> 100 µg/mL	100 µg/mL	6.2 µg/mL	MIC (organism code EE): 6.2 µg/mL; MIC (organism code WW): 16 µg/mL; MIC (organism code XX): 0.5 µg/mL; MIC (organism code YY): 0.25 µg/mL; MIC (organism code ZZ): > 128 µg/mL; MIC (organism code ZZA): 4 µg/mL
CC[C@H]1OC(=O)[C@H](C)C(=O)[C@H](C)[C@@H](O[C@@H]2O[C@H](C)C[C@H](N(C)C)[C@H]2O)[C@@](C)(OCC(=O)c2ccccc2)C[C@@H](C)C(=O)[C@H](C)[C@H]2NC(=O)O[C@@]21C [Example 239, Compound of Formula (IX): L is CO, T is NH, R is —CH2C(O)-phenyl]	6.2 µg/mL	> 100 µg/mL	6.2 µg/mL	6.2 µg/mL	> 100 µg/mL	6.2 µg/mL	1.56 µg/mL	0.39 µg/mL	0.39 µg/mL	0.39 µg/mL	> 100 µg/mL	1.56 µg/mL	0.39 µg/mL	1.56 µg/mL	> 100 µg/mL	6.1 µg/mL	> 100 µg/mL	> 100 µg/mL	50 µg/mL	3.1 µg/mL	MIC (organism code BB): 6.2 µg/mL; MIC (organism code EE): 6.2 µg/mL; MIC (organism code WW): 64 µg/mL; MIC (organism code XX): 0.25 µg/mL; MIC (organism code YY): 0.25 µg/mL; MIC (organism code ZZ): > 128 µg/mL; MIC (organism code ZZA): 1 µg/mL
CCC1OC(=O)C(C)C(=O)C(C)C(OC2OC(C)CC(N(C)C)C2O)C(C)(OCC=Cc2cnc3ccc(C(N)=O)cc3c2)CC(C)C(=O)C(C)C2NC(=O)OC12C (stereo not shown) [Example 217, R is —CH2CH═CH-(6-aminocarbonyl-3-quinolyl)]	0.2 µg/mL (≈ 0.247 µM)	> 100 µg/mL	0.39 µg/mL (≈ 0.482 µM)	0.2 µg/mL (≈ 0.247 µM)	> 100 µg/mL	0.39 µg/mL (≈ 0.482 µM)	0.2 µg/mL (≈ 0.247 µM)	0.02 µg/mL (≈ 0.0247 µM)	0.02 µg/mL (≈ 0.0247 µM)	0.02 µg/mL (≈ 0.0247 µM)	0.78 µg/mL (≈ 0.964 µM)	0.78 µg/mL (≈ 0.964 µM)	0.1 µg/mL (≈ 0.124 µM)	0.39 µg/mL (≈ 0.482 µM)	50 µg/mL (≈ 61.8 µM)	0.39 µg/mL (≈ 0.482 µM)	> 100 µg/mL	> 100 µg/mL	12.5 µg/mL (≈ 15.5 µM)	0.78 µg/mL (≈ 0.964 µM)	MIC (organism code BB): 0.39 µg/mL (≈ 0.482 µM); MIC (organism code WW): 2 µg/mL (≈ 2.47 µM); MIC (organism code XX): 0.03 µg/mL (≈ 0.0371 µM); MIC (organism code YY): 0.03 µg/mL (≈ 0.0371 µM); MIC (organism code ZZ): 2 µg/mL (≈ 2.47 µM); MIC (organism code ZZA): 2 µg/mL (≈ 2.47 µM)
CC[C@H]1OC(=O)[C@H](C)C(=O)[C@H](C)[C@@H](O[C@@H]2O[C@H](C)C[C@H](N(C)C)[C@H]2O)[C@@](C)(OCC=Cc2ccc3ncc(Br)cc3c2)C[C@@H](C)C(=O)[C@H](C)[C@H]2NC(=O)O[C@@]21C [Example 219, R is —CH2CH═CH-(3-bromo-6-quinolyl)]	0.2 µg/mL (≈ 0.237 µM)	100 µg/mL (≈ 118 µM)	0.2 µg/mL (≈ 0.237 µM)	0.2 µg/mL (≈ 0.237 µM)	100 µg/mL (≈ 118 µM)	0.2 µg/mL (≈ 0.237 µM)	0.05 µg/mL (≈ 0.0592 µM)	≤ 0.005 µg/mL	0.02 µg/mL (≈ 0.0237 µM)	0.02 µg/mL (≈ 0.0237 µM)	3.1 µg/mL (≈ 3.67 µM)	0.2 µg/mL (≈ 0.237 µM)	0.05 µg/mL (≈ 0.0592 µM)	0.2 µg/mL (≈ 0.237 µM)	100 µg/mL (≈ 118 µM)	0.78 µg/mL (≈ 0.923 µM)	> 100 µg/mL	> 100 µg/mL	0.39 µg/mL (≈ 0.462 µM)	0.05 µg/mL (≈ 0.0592 µM)	MIC (organism code BB): 0.2 µg/mL (≈ 0.237 µM); MIC (organism code EE): 0.2 µg/mL (≈ 0.237 µM); MIC (organism code WW): 2 µg/mL (≈ 2.37 µM); MIC (organism code XX): 0.03 µg/mL (≈ 0.0355 µM); MIC (organism code YY): 0.03 µg/mL (≈ 0.0355 µM); MIC (organism code ZZ): 2 µg/mL (≈ 2.37 µM); MIC (organism code ZZA): 0.25 µg/mL (≈ 0.296 µM)

From USRE39591E1, “6-O-substituted ketolides having antibacterial activity” (Abbott Laboratories, priority 1996, dated 2007)
